Experimental data from US9730940B2, “Purine inhibitors of human phosphatidylinositol 3-kinase delta” (priority 2012, dated 2017).

Target: PI3K-alpha (Homo sapiens (Human), UniProt P42336)
Assay: HTRF PI3K biochemical assay, alpha isoform
Settings: ratio PI3K-alpha IC50 value/PI3K-delta IC50 value

PI3K-alpha, sequence (P42336 whole entry, looked up, canonical isoform): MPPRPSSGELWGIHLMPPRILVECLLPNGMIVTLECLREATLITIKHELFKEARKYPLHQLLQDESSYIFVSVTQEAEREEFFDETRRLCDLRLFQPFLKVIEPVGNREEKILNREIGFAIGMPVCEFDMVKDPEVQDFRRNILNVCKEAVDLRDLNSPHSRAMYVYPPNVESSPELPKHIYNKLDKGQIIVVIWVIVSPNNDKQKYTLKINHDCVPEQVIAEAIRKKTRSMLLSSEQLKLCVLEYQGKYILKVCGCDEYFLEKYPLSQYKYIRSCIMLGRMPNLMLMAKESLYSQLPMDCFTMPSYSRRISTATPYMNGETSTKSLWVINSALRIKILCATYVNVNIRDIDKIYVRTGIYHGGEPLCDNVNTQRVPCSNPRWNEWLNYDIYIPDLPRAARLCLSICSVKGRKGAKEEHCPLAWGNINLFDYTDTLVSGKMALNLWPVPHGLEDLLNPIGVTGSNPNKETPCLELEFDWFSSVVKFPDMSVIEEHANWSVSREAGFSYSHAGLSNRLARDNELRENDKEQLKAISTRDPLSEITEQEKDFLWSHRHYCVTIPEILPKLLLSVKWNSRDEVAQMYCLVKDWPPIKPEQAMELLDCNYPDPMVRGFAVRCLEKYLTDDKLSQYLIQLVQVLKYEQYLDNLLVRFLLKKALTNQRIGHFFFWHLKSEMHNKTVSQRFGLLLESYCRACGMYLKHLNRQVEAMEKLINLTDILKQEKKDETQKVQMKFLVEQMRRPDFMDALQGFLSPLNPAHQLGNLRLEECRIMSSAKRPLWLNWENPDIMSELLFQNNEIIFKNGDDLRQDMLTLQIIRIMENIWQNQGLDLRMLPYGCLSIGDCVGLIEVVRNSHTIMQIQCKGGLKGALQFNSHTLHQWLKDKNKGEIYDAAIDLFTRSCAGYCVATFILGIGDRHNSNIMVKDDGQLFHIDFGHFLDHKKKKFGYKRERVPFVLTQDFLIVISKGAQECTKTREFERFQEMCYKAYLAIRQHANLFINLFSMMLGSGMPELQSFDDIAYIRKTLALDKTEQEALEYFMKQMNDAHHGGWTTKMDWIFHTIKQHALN
PI3K-alpha, sequence (P27986 whole entry partner, looked up, canonical isoform): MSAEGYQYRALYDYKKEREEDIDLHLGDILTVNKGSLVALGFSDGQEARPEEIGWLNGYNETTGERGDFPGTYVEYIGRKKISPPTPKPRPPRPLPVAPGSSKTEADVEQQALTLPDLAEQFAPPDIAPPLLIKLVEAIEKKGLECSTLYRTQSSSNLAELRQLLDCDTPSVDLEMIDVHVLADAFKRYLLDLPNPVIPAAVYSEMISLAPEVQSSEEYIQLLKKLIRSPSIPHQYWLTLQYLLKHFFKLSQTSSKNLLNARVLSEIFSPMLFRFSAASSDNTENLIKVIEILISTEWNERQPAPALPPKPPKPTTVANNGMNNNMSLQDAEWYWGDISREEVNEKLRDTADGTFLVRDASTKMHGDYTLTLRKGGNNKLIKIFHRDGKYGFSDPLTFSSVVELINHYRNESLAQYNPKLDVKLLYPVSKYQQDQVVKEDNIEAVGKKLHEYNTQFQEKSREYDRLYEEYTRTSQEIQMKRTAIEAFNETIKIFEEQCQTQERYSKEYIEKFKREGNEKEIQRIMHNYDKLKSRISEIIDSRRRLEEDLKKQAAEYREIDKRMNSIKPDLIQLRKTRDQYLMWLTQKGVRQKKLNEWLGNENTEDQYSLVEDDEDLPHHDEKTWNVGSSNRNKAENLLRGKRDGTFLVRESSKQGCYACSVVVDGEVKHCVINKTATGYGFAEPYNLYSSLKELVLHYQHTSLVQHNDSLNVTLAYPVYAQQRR

Compound | Relative Selectivity versus PI3Kalpha
CCn1c(-c2cnc(C)nc2)nc2c(O[C@H]3CCN(C(=O)C4(N)CCC4)C3)ncnc21 [Compound 2-112, 1-{[(3S)-3-{[9-ethyl-8-(2-methylpyrimidin-5-yl)-9H-purin-6-yl]oxy}pyrrolidin-1-yl]carbonyl}cyclobutanamine] | >10
CCn1c(-c2ccc(OC(F)F)nc2)nc2c(O[C@H]3CCN(C(=O)OC(C)(C)C)C3)ncnc21 [Compound 1-51, tert-butyl (3S)-3-({8-[6-(difluoromethoxy)pyridin-3-yl]-9-ethyl-9H-purin-6-yl}oxy)pyrrolidine-1-carboxylate] | >10
CCn1c(-c2cnc(C)nc2)nc2c(O[C@H]3CCN(C(=O)C4CC4CF)C3)ncnc21 (single isomer, unassigned) [Compound 2-133, 9-ethyl-6-{[(3S)-1-{[(1S,2S)- or (1R,2R)-2-(fluoromethyl)cyclopropyl]carbonyl}pyrrolidin-3-yl]oxy}-8-(2-methylpyrimidin-5-yl)-9H-purine] | >10
CCn1c(-c2ccc(OC)nc2)nc2c(O[C@H]3CCN(C(=O)C4CC4)C3)ncnc21 [Compound 2-143, 6-{[(3S)-1-(cyclopropylcarbonyl)pyrrolidin-3-yl]oxy}-9-ethyl-8-(6-methoxypyridin-3-yl)-9H-purine] | >10
CCn1ncc(-c2nc3c(O[C@H]4CCN(C(=O)C5CCC5)C4)ncnc3n2C)c1C [Compound 2-105, 6-{[(3S)-1-(cyclobutylcarbonyl)pyrrolidin-3-yl]oxy}-8-(1-ethyl-5-methyl-1H-pyrazol-4-yl)-9-methyl-9H-purine] | >10
CCn1ncc(-c2nc3c(O[C@H]4CCN(C(=O)c5cccn5C)C4)ncnc3n2C)c1C [Compound 2-67, 8-(1-ethyl-5-methyl-1H-pyrazol-4-yl)-9-methyl-6-({(3S)-1-[(1-methyl-1H-pyrrol-2-yl)carbonyl]pyrrolidin-3-yl}oxy)-9H-purine] | >10
CCn1ncc(-c2nc3c(O[C@H]4CCN(c5ncnc6sccc56)C4)ncnc3n2C)c1C [Compound 7-13, 8-(1-ethyl-5-methyl-1H-pyrazol-4-yl)-9-methyl-6-{[(3S)-1-thieno[2,3-d]pyrimidin-4-ylpyrrolidin-3-yl]oxy}-9H-purine] | >10
CCn1ncc(-c2nc3c(O[C@H]4CCN(C(=O)c5ccn(C)n5)C4)ncnc3n2C)c1C [Compound 2-37, 8-(1-ethyl-5-methyl-1H-pyrazol-4-yl)-9-methyl-6-({(3S)-1-[(1-methyl-1H-pyrazol-3-yl)carbonyl]pyrrolidin-3-yl}oxy)-9H-purine] | >10
CCn1ncc(-c2nc3c(O[C@H]4CCN(C(=O)NC(C)C)C4)ncnc3n2C)c1C [Compound 5-3, (3S)-3-{[8-(1-ethyl-5-methyl-1H-pyrazol-4-yl)-9-methyl-9H-purin-6-yl]oxy}-N-(1-methylethyl)pyrrolidine-1-carboxamide] | >10
CCn1ncc(-c2nc3c(O[C@H]4CCN(C(=O)c5cccnc5)C4)ncnc3n2C)c1C [Compound 2-22, 8-(1-ethyl-5-methyl-1H-pyrazol-4-yl)-9-methyl-6-{[(3S)-1-(pyridin-3-ylcarbonyl)pyrrolidin-3-yl]oxy}-9H-purine] | >10
CCn1c(-c2ccc(OC)cn2)nc2c(O[C@H]3CCN(C(=O)C4CC4)C3)ncnc21 [Compound 3-48, 6-{[(3S)-1-(cyclopropylcarbonyl)pyrrolidin-3-yl]oxy}-9-ethyl-8-(5-methoxypyridin-2-yl)-9H-purine] | >10
CCn1ncc(-c2nc3c(O[C@H]4CCN(C(=O)c5nc(C)oc5C)C4)ncnc3n2C)c1C [Compound 2-28, 6-({(3S)-1-[(2,5-dimethyl-1,3-oxazol-4-yl)carbonyl]pyrrolidin-3-yl}oxy)-8-(1-ethyl-5-methyl-1H-pyrazol-4-yl)-9-methyl-9H-purine] | >10
CCn1c(-c2cnc(C)nc2)nc2c(O[C@H]3CCN(C(=O)C4C(C)C4C)C3)ncnc21 (stereo partly shown) [Compound 2-128] | >10
CCn1c(-c2cnc(C)nc2)nc2c(O[C@H]3CCN(C(=O)c4ccn(C)n4)C3)ncnc21 [Compound 2-109, 9-ethyl-6-({(3S)-1-[(1-methyl-1H-pyrazol-3-yl)carbonyl]pyrrolidin-3-yl}oxy)-8-(2-methylpyrimidin-5-yl)-9H-purine] | >10
CCn1ncc(-c2nc3c(O[C@H]4CCN(C(=O)OCc5ccccc5)C4)ncnc3n2C)c1C [Compound 1-6, benzyl (3S)-3-{[8-(1-ethyl-5-methyl-1H-pyrazol-4-yl)-9-methyl-9H-purin-6-yl]oxy}pyrrolidine-1-carboxylate] | 4
CCn1c(-c2cnc(C)nc2)nc2c(OC3CN(C(=O)OC(C)(C)C)CC3O)ncnc21 [Compound 1-46, [(3S,4S) and (3R,4R)]-tert-butyl 3-{[9-ethyl-8-(2-methylpyrimidin-5-yl)-9H-purin-6-yl]oxy}-4-hydroxypyrrolidine-1-carboxylate] | >10

Compound | Relative Selectivity versus PI3Kalpha
CCn1c(-c2ccc(C(F)(F)F)nc2)nc2c(O[C@H]3CCN(C(=O)N4CC(OC)C4)C3)ncnc21 [Compound 5-28, (S)-(3-((9-ethyl-8-(6-(trifluoromethyl)pyridin-3-yl)-9H-purin-6-yl)oxy)pyrrolidin-1-yl)(3-methoxyazetidin-1-yl)methanone] | >10
CCn1c(-c2cnc(C)nc2)nc2c(OC3CN(C(=O)C4CC4)CC3C(F)F)ncnc21 (single isomer, unassigned) [Compound 3-67, cyclopropyl([(3R,4S) or (3S,4R)]-3-(difluoromethyl)-4-((9-ethyl-8-(2-methylpyrimidin-5-yl)-9H-purin-6-yl)oxy)pyrrolidin-1-yl)methanone] | >10
CCn1c(-c2cnc(C)nc2)nc2c(OC3CN(C(=O)C4CC4)CC3C(F)F)ncnc21 (single isomer, unassigned) [Compound 3-66, cyclopropyl([(3R,4S) or (3S,4R)]-3-(difluoromethyl)-4-((9-ethyl-8-(2-methylpyrimidin-5-yl)-9H-purin-6-yl)oxy)pyrrolidin-1-yl)methanone] | >10
CCC(=O)N1CC[C@H](Oc2ncnc3c2nc(-c2cnn(CC)c2C)n3C2CC2)C1 [Compound 2-97, (S)-1-(3-((9-cyclopropyl-8-(1-ethyl-5-methyl-1H-pyrazol-4-yl)-9H-purin-6-yl)oxy)pyrrolidin-1-yl)propan-1-one] | >10
CCn1c(-c2ccc(OC)c(F)c2)nc2c(O[C@H]3CCN(C(=O)C4CC4)C3)ncnc21 [Compound 3-24, 6-{[(3S)-1-(cyclopropylcarbonyl)pyrrolidin-3-yl]oxy}-9-ethyl-8-(3-fluoro-4-methoxyphenyl)-9H-purine] | >10
CCn1ncc(-c2nc3c(O[C@H]4CCN(c5cc(-n6cc(C)cn6)ncn5)C4)ncnc3n2C)c1C [Compound 7-9, 8-(1-ethyl-5-methyl-1H-pyrazol-4-yl)-9-methyl-6-({(3S)-1-[6-(4-methyl-1H-pyrazol-1-yl)pyrimidin-4-yl]pyrrolidin-3-yl}oxy)-9H-purine] | >10
CCC(=O)N1CC[C@H](Oc2ncnc3c2nc(-c2ccc4cn[nH]c4c2)n3C)C1 [Compound 3-1, (S)-1-(3-((8-(1H-indazol-6-yl)-9-methyl-9H-purin-6-yl)oxy)pyrrolidin-1-yl)propan-1-one] | >10
CCn1ncc(-c2nc3c(O[C@@H]4CCN(C(=O)C5CCOCC5)C4)ncnc3n2C)c1C [Compound 2-9, (R)-(3-((8-(1-ethyl-5-methyl-1H-pyrazol-4-yl)-9-methyl-9H-purin-6-yl)oxy)pyrrolidin-1-yl)(tetrahydro-2H-pyran-4-yl)methanone] | 3
Cn1c(-c2ccc3[nH]ncc3c2)nc2c(O[C@H]3CCN(C(=O)OC(C)(C)C)C3)ncnc21 [Compound 1-29, tert-butyl (3S)-3-{[8-(1H-indazol-5-yl)-9-methyl-9H-purin-6-yl]oxy}pyrrolidine-1-carboxylate] | >10
CCC(=O)N1CC[C@H](Oc2ncnc3c2nc(I)n3C)C1 [Compound 3-31, 8-iodo-9-methyl-6-{[(3S)-1-propanoylpyrrolidin-3-yl]oxy}-9H-purine] | >10
Cn1c(-c2ccc(-n3ccnc3)cc2)nc2c(O[C@H]3CCN(C(=O)OC(C)(C)C)C3)ncnc21 [Compound 1-25, tert-butyl (3S)-3-({8-[4-(1H-imidazol-1-yl)phenyl]-9-methyl-9H-purin-6-yl}oxy)pyrrolidine-1-carboxylate] | >10
CCC(=O)N1CC[C@H](Oc2ncnc3c2nc(-c2ccc4cc[nH]c4c2)n3C)C1 [Compound 3-4, (S)-1-(3-((8-(1H-indol-6-yl)-9-methyl-9H-purin-6-yl)oxy)pyrrolidin-1-yl)propan-1-one] | >10
CCC(=O)N1CC[C@H](Oc2ncnc3c2nc(-c2cncc(N)c2)n3C)C1 [Compound 3-15, 5-(9-methyl-5-{[(3S)-1-propanoylpyrrolidin-3-yl]oxy}-9H-purin-8-yl)pyridin-3-amine] | >10
CCCn1c(-c2cnn(CC)c2C)nc2c(O[C@H]3CCN(C(=O)CC)C3)ncnc21 [Compound 3-18, 8-(1-ethyl-5-methyl-1H-pyrazol-4-yl)-6-{[(3S)-1-propanoylpyrrolidin-3-yl]oxy}-9-propyl-9H-purine] | >10
CCn1c(-c2cnc(OC)c(C(F)(F)F)c2)nc2c(O[C@H]3CCN(C(=O)C4CC4)C3)ncnc21 [Compound 3-26, 5-{[(3S)-1-(cyclopropylcarbonyl)pyrrolidin-3-yl]oxy}-9-ethyl-8-[6-methoxy-5-(trifluoromethyl)pyridin-3-yl]-9H-purine] | >10
